Data taken from article PMC6802730, “In Vitro Performance of Published Glypican 3-Targeting Peptides TJ12P1 and L5 Indicates Lack of Specificity and Potency” (Cancer Biotherapy & Radiopharmaceuticals, 2019).
“Also recorded” adds a separate entry of the source. Where two headings read alike, the source gives them in different places.

Tests used:
Solubility assays = type: physicochemical
Method: (§1) Solubility assays were performed to determine the most compatible solvent for both peptides before in vitro evaluation of GPC3 binding, favoring aqueous solvents over cytotoxic organic solvents such as dimethylformamide (DMF) and dimethyl sulfoxide (DMSO).
FIG. 1. Cy5.5-conjugated TJ12P1 is peptide insoluble in aqueous buffer. Bright field images of Cy5.5-TJ12P1 peptides in solution. In (A, B), peptide Cy5.5-TJ12P1 is undissolved in 20% DMSO/80% ddH2O and 100% ddH2O at 0.3 mg/mL, respectively. DMSO, dimethyl sulfoxide.

[1] = tested on: G1, HepG2, and A431 cells; assay: Flow cytometry, binding compared across A431, G1 and HepG2 cells; type: cell-based, human; details: 1 h, n = 3
Method: (§2) A431, a human epidermoid carcinoma GPC3^− cell line, and A431-GPC3^+ (G1), a transfected A431 cell line engineered to stably express human GPC3, were both obtained from Dr. M.H. (National Cancer Institute, Bethesda, MD).[12] HepG2 (GPC3^+ liver cancer cell line) was obtained from ATCC (Manassas, VA). All cell lines were cultured in DMEM (Life Technologies, Carlsbad, CA) supplemented with 10% FetaPlex (Gemini Bio-Products, West Sacramento, CA) according to supplier's protocols. All cell lines tested negative for mycoplasma in monthly tests and were used for experiments within 10 passages (HepG2) or 15 passages (A431 and G1).
(§3) Approximately 1 × 10^6 cells per sample tube were harvested, washed once with ice-cold staining buffer (1% bovine serum albumin in 1 × phosphate buffered saline [PBS]), and resuspended in 60 μL staining buffer. Cells were then distributed into control and experimental vials. Unstained and single-color control samples were made. Experimental samples were stained with PE-conjugated anti-GPC3 antibody (R&D Systems, Minneapolis, MN), PE-conjugated IgG2 isotype control (Biolegend, San Diego, CA), conjugated specific or nonspecific peptide and incubated for 1–2 h on ice in the dark. Data were collected using a BD FACSCalibur cytometer running BD CellQuest Pro software (v6.0), and results were analyzed with FlowJo (v10.4.2). All experiments represent biological replicates (n = 3).

[2] = target: Glypican 3 (Homo sapiens) (UniProt P51654); assay: surface plasmon resonance; details: cited from earlier work
[3] = target: Glypican 3 (Homo sapiens) (UniProt P51654); details: cited from earlier work
[4] = Hydrophobic residue content
[5] = cited from earlier work
Method: as §1, with “(DMSO). […] Sonication and vortexin ... || This study has a few limitations.” for “(DMSO).”

GPC3 [6] = assay: Cell-based and cell-free GPC3 binding assays, overall result; parameters: species or system human; details: for binding to GPC3 (overall): fluorescently labeled and unlabeled versions, concentrations in the range of their published KD (0.3–1 μM); for specific binding (overall): concentrations in the range of their reported KD; for selectivity for GPC3 (overall): concentrations near the reported KD
Method: as §3
(§4) Biotinylated human GPC3 protein (Acro Biosystems, Newark, DE) was diluted to 5 μg/mL in assay buffer (1 × PBS with 0.02% Tween-20) in a 96-well plate and loaded onto streptavidin biosensors (FortéBio, Menlo Park, CA). Each unconjugated peptide was diluted in assay buffer at four concentrations (1000, 500, 250, and 125 nM for TJ12P1; and 500, 250, 125, and 62.5 nM for KKK-L5) and loaded into the 96-well plate in a final volume of 200 μL. Specific and nonspecific binding wells were made for each concentration. The plate was run on an Octet Red96 system (FortéBio) and analyzed with FortéBio Octet Data Analysis software (v.11).

human GPC3 = target: T1, human GPC3 (Homo sapiens, UniProt P51654); assay: Biolayer interferometry to immobilized recombinant biotinylated GPC3; type: binding; details: unlabeled peptide, 1 × PBS with 0.02% Tween-20
T1 construct: biotin (biotinylated); purchased Acro Biosystems
Method: as §4

GPC3 [7] = details: cited from earlier work
From the text: Table 1. […] Several full-length antibodies, antibody fragments, and peptides for imaging and/or therapeutic use have been developed for GPC3 with varying degrees of success (Table 1).[8–17] […] To rule out the possibility that fluorophore modification of TJ12P1 interfered with its abil ... || (+ 2 further places)

HepG2 cells = assay: Flow cytometry, HepG2 (GPC3-positive) cells; type: cell-based; details: 300 nM, 1 h, n = 3
Method: as §2
as §3, with “All experiments represent biological replicates (n = 3).” left out

T1 sequence (P51654 25-580): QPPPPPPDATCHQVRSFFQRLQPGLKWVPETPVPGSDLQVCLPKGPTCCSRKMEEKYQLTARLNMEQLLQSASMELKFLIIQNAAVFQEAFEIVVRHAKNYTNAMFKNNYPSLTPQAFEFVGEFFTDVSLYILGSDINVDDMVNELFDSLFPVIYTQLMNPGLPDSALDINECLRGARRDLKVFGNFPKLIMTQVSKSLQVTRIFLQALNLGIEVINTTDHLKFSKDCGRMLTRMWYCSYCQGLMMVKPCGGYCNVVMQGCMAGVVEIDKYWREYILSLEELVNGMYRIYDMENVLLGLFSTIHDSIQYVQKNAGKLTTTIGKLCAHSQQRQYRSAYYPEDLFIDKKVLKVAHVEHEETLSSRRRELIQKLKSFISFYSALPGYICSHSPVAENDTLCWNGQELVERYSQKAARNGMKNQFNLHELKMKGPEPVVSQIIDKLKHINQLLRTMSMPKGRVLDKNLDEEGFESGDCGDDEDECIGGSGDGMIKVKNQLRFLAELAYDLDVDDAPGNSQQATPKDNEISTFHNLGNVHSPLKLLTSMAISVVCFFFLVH
Chain of Glypican 3 (Homo sapiens) (P51654 359-554): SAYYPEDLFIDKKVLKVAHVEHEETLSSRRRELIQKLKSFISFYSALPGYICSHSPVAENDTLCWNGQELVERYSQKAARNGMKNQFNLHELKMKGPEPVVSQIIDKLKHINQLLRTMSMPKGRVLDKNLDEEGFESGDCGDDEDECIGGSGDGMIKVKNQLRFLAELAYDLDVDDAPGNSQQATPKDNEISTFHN

**Q.** For “Sulfo-Cy5-KKKRLNVGGTYFLTTRQ [sulfo-Cy5-KKK-L5, sulfo-Cy5-conjugated KKK-L5]”, which solubility (Solubility assays; ddH2O, 0.5 mg/mL) is on record?
**A.** Its solubility is “soluble in ddH2O”.

**Q.** And the “binding, A431 vs HepG2 and G1 (histogram shift)” value ([1]; 300 nM, flow cytometry)?
**A.** Its value is “bound nonspecifically to GPC3, as the observed histogram shift is identical in the A431 (GPC3^−) and the HepG2 and G1 (GPC3^+) cells”.

**Q.** With L5 as the substance, how does the Kd [2] read?
**A.** The Kd was 44.7 nM.

**Q.** With “Sulfo-Cy5-WLSHLGDLTWEA [sulfo-Cy5-TJ12P1 scrambled peptide, sulfo-Cy5-labeled scrambled variant of TJ12P1]” as the substance, how does the “binding compared to sulfo-Cy5-TJ12P1” value ([1]; 325 nM, all GPC3+ cell lines (G1, HepG2), flow cytometry, p = 0.02) read?
**A.** Its value is “significantly increased binding in all GPC3^+ cell lines”.

**Q.** For TJ12P1, which Kd [3] is on record?
**A.** Its Kd is 390 nM.

**Q.** Which solubility (Solubility assays; aqueous solution) does the source give for “RLNVGGTYFLTTRQ [L5, previously published GPC3-targeting peptide; original L5 not evaluated in this study, reference compound]” here?
**A.** Its solubility is “poor solubility in aqueous solutions”.

**Q.** What about the “hydrophobic residues, share of sequence” value ([4]; four out of the 14 residues) of the same substance?
**A.** The value was 28.5%.

**Q.** And the “hydrophobic residues, number” value ([4]; out of the 14 residues)?
**A.** Its value is “Four”.

**Q.** What about the solubility ([5]; original L5 peptide, as reported in literature) of the same substance?
**A.** Its solubility is “poor solubility”.

**Q.** What about the “binding to GPC3 (overall)” value (GPC3 [6]) of the same substance?
**A.** The value was “neither fluorescently labeled nor unlabeled versions tested can bind to GPC3”.

**Q.** Which solubility (Solubility assays; 0.15 M NH4OAc) does the source give for “Sulfo-Cy5-DHLASLWWGTEL [sulfo-Cy5-TJ12P1, sulfo-Cy5-labeled variant of TJ12P1]” here?
**A.** The solubility was “appeared to be soluble”.

**Q.** What about the “binding, G1 vs HepG2 vs A431” value ([1]; 325 nM, flow cytometry) of the same substance?
**A.** Its value is “no significant difference in binding between G1, HepG2, and A431 cells; also recorded: nonspecific association of TJ12P1 to all cell lines”.

**Q.** With “WLSHLGDLTWEA [TJ12P1 scramble, scrambled variant of TJ12P1, nonspecific control]” as the substance, how does the “binding (MFI) compared to specific peptide (sulfo-Cy5-TJ12P1)” value ([1]; 325 nM, all cell lines tested, p < 0.05) read?
**A.** Its value is “more binding to all cell lines tested”.

**Q.** What does the source list for DHLASLWWGTEL [TJ12P1]?
**A.** solubility (Solubility assays; aqueous solution): poor solubility in aqueous solution; solubility (Solubility assays; aqueous solution, record 2): poor solubility in aqueous solutions; KD by BLI (human GPC3; 125–1000 nM): no KD could be calculated; BLI concentration-dependent binding to GPC3 (human GPC3; 125–1000 nM, recombinant biotinylated human GPC3 on streptavidin biosensors): failed to demonstrate concentration-dependent binding behavior; Kd (GPC3 [7]; with Cy5.5, ref [9] (Zhu et al.)): 390 nM; specific binding (overall) (GPC3 [6]): do not bind specifically; selectivity for GPC3 (overall) (GPC3 [6]): neither TJ12P1 nor L5 variant demonstrates selectivity for GPC3; binding to GPC3 (overall) (GPC3 [6]): neither fluorescently labeled nor unlabeled versions tested can bind to GPC3

**Q.** Which “binding (MFI) compared to specific peptide (sulfo-Cy5-KKK-L5)” value ([1]; 300 nM, all three cell lines, p < 0.05) does the source give for “Sulfo-Cy5-KKKYTRFLGTVGNRLTQ [sulfo-Cy5-KKK-L5 scramble, sulfo-Cy5-labeled scrambled variant of KKK-L5]” here?
**A.** Its value is “more binding; also recorded: binds better to all cell lines than the specific peptide”.

**Q.** What about the “difference in staining compared to sulfo-Cy5-KKK-L5” value (HepG2 cells; high-staining HepG2 population (Hi), p < 0.001) of the same substance?
**A.** Its value is “statistically significant”.

**Q.** And the “difference in staining compared to sulfo-Cy5-KKK-L5” value (HepG2 cells; low-staining HepG2 population (Lo), p < 0.005)?
**A.** The value was “statistically significant”.

**Q.** Which Kd (GPC3 [7]; humanized: Yes, ref [16]) does the source give for “hGC33: published anti-GPC3 targeting moiety, humanized” here?
**A.** Its Kd is 0.67 nM.

**Q.** For “KKK-RLNVGGTYFLTTRQ [KKK-L5, variant of the L5 peptide with three lysine residues]”, which solubility (Solubility assays; ddH2O, 0.5 mg/mL) is on record?
**A.** Its solubility is “soluble in ddH2O”.

**Q.** What about the “KD by BLI” value (human GPC3; 62.5–500 nM) of the same substance?
**A.** The value was “no KD could be calculated”.

**Q.** And the “BLI binding to GPC3” value (human GPC3; 62.5–500 nM, recombinant biotinylated human GPC3 on streptavidin biosensors)?
**A.** Its value is “absence of specific binding to GPC3; also recorded: failed to demonstrate concentration-dependent binding behavior”.

**Q.** And the solubility ([5]; aqueous solution, compared to the original L5 peptide, ref [23] (Han et al.))?
**A.** The solubility was “higher solubility in aqueous solution”.

**Q.** And the “specific binding (overall)” value (GPC3 [6])?
**A.** Its value is “do not bind specifically”.

**Q.** What about the “selectivity for GPC3 (overall)” value (GPC3 [6]) of the same substance?
**A.** The value was “neither TJ12P1 nor L5 variant demonstrates selectivity for GPC3”.
